Experimental data: PMC10545790
Values joined by “and” are separate entries in the source; they are usually repeats but may differ in a detail not shown here. Equal entries are not always repeated. “Also recorded” adds a separate entry of the source. Structures can show the parent of a compound that is named as a salt. Each block holds one compound with its values, some of them ahead of it.

Key:
[1] = tested on: human hepatocellular carcinoma cells HepG2; experiment: High Content Imaging of HepG2 cells: nuclei count, necrosis (PI), apoptosis (caspase 3/7); assay type: cell-based; set-up: Nuclei Area wv1 / Mean nuclei area: unit not given here; details: for Mean nuclei area / Mean nuclei intensity / % of early apoptotic cells (PI negative, caspase positive) / % of necrotic and late apoptotic cells (PI positive) / All Targets.PI negative.casp positive (%) / All Targets.PI positive (%) / Nuclei Area wv1 / Nuclei Count wv1 / Nuclei Intensity wv1 / % of necrotic and late apoptotic cells (PI positive); cell toxicity level / inhibition of cell proliferation (in words) / cytotoxic effects (in words) / effect on cell proliferation (in words): HepG2, 48 h; for Mean nuclei intensity: Hoechst 33342; for % of early apoptotic cells (PI negative, caspase positive) / % of necrotic and late apoptotic cells (PI positive) / % of necrotic and late apoptotic cells (PI positive); cell toxicity level: mean of 3 wells; for All Targets.PI negative.casp positive (%) / All Targets.PI positive (%) / Nuclei Area wv1 / Nuclei Intensity wv1: single well; for Nuclei Count wv1: single well (concentration from plate map the 5th table); for inhibition of cell proliferation (in words): 50 μM, nuclei count; for effect on HepG2 cell death / apoptosis compared with Vorinostat (in words): HepG2, 48 h, 1, 5 and 50 μM; for cytotoxic effects (in words) / effect on cell proliferation (in words): 1 and 5 μM
Description: proliferation and cell death mechanisms, using High Content Imaging assay. The following parameters were assessed: nuclei count to measure inhibiting of the proliferation; cell membrane permeability to assess general cytotoxicity and necrosis; caspase activation to test apoptosis. […]
Human hepatocellular carcinoma HepG2 cell line was used to test biological action of Vorinostat and its analogues. Cell line was obtained from Leibniz Institute DSMZ - German Collection of Microorganisms and Cell Cultures. Cells were cultured in DMEM medium (Hyclone, Cat# SH30003.04) supplemented with 10% fetal bovine serum (Sigma-Aldrich, Cat# F7524), 100 units/mL penicillin and 100 μg/mL streptomycin (Sigma-Aldrich, Cat# P4333).
Before plating, the cells were first washed with PBS and then trypsinized with 0.01% trypsin solution (Sigma-Aldrich, Cat# T4174) in DPBS. The appropriate volume of culture medium was placed in a flask to stop further trypsinization, then the cells were centrifugated at 200 x g for 4 min, resuspended in fresh complete medium and counted using a counting chamber after being stained with Trypan Blue. […]
μL total volume per well and incubated at 37 °C/5%CO2/95%RH overnight. Vorinostat and test compounds were dissolved in 100% DMSO at a concentration of 10 mM and stored at -20 °C as single-use aliquots. Next day 20 μL of medium with compounds was added to the cells to the final DMSO concentration […]. Treatment for 48 hours was performed under growth conditions.
Compounds were assessed at the final concentrations 1, 5 and 50 μM (each in triplicates - 3 wells, 9 fields of view per well). Staining for nuclei, apoptotic cells with activated caspase 3/7 and dead […]
cells with permeabilized membrane was performed for 30 min under growth conditions in staining […]
3/7 Detection Reagent (Invitrogen, Cat# C10423) and 1 μM Propidium Iodide (Invitrogen, Cat# P3566) in medium complete. The cells were imaged with InCell Analyzer 6500, 20x obj. Image […]
Data were analyzed in GraphPad Prism 9.
Supplementary Fig. 16. Workflow of multiplexed cells staining.
Multiplexed staining allows to test cell toxicity and distinguish between necrosis and apoptosis within one single experiment (Supplementary Fig. 16).
CellEvent Caspase-3/7 Green Detection Reagent labels cells with activated caspases. Propidium Iodide (PI) labels dead cells with permeabilized membrane. Hoechst-positive cells were counted to assess the % of cell toxicity. PI-positive cells are dead – this is a fraction of necrotic and late apoptotic cells, used for assessing of cytotoxicity/necrosis. Early apoptotic cells are caspase-positive, PI-negative because their membrane isn’t compromised yet. Percentages of cells of certain […]
background and comparing with overall number of cells.

in vitro = details: both, human
[2] = Thermal and chemical stability; assay type: physicochemical
From the text: We also examined the thermal and chemical stability of the synthesized 2-oxabicyclo[2.2.2]octanes. As representative examples, we selected three molecules: isomeric acids 47, 54, and amine 52. All 2-oxabicyclo[2.2.2]octanes were crystalline solids that were stable in air. We stored them in stock at room temperature in closed vials and observed no changes according to ^1H NMR after one year. […] Treatment of the selected 2-oxabicyclo[2.2.2]octanes with aq. 1 M HCl, or aq.

[3] = microsomes, pH 7.4, % Remaining, Mean of 2

SMILES: O=C(CCCCCCC(=O)NC12CCC(CC1)CC2)NO [Compound 89]
Mean nuclei area ([1]; 1 uM): 117.0
Mean nuclei intensity ([1]; 1 uM): 3374.0 RFU
% of early apoptotic cells (PI negative, caspase positive) ([1]; 1 uM): 0.444%
% of necrotic and late apoptotic cells (PI positive) ([1]; 1 uM): 0.6%
All Targets.PI negative.casp positive (%) ([1]; 1 uM): 0.4175% and 0.3796% and 0.5358%
All Targets.PI positive (%) ([1]; 1 uM): 0.5526% and 0.5457% and 0.7144%
Nuclei Area wv1 ([1]; 1 uM): 115.697 and 116.603 and 118.647
Nuclei Count wv1 ([1]; 1 uM): 8143 and 8429 and 8399
Mean nuclei area ([1]; 5 uM): 120.9
Mean nuclei intensity ([1]; 5 uM): 4138.0 RFU
% of early apoptotic cells (PI negative, caspase positive) ([1]; 5 uM): 0.563%
% of necrotic and late apoptotic cells (PI positive) ([1]; 5 uM): 0.9%
All Targets.PI negative.casp positive (%) ([1]; 5 uM): 0.4763% and 0.5673% and 0.6459%
All Targets.PI positive (%) ([1]; 5 uM): 0.9922% and 0.9996% and 0.6321%
Nuclei Area wv1 ([1]; 5 uM): 120.224 and 120.771 and 121.802
Nuclei Intensity wv1 ([1]; 5 uM): 4041.68 and 3853.68 and 4517.41
Nuclei Count wv1 ([1]; 5 uM): 7559 and 7403 and 7277
Mean nuclei area ([1]; 50 uM): 115.2
Mean nuclei intensity ([1]; 50 uM): 2088.0 RFU
% of early apoptotic cells (PI negative, caspase positive) ([1]; 50 uM): 9.5%
% of necrotic and late apoptotic cells (PI positive); cell toxicity level ([1]; 50 uM): 67% and 67.1%
inhibition of cell proliferation (in words) [1]: inhibited cell proliferation at 50 μM concentration to the same level as Vorinostat
All Targets.PI negative.casp positive (%) ([1]; 50 uM): 10.5117% and 9.102% and 8.933%
All Targets.PI positive (%) ([1]; 50 uM): 65.2916% and 67.7168% and 68.1969%
Nuclei Area wv1 ([1]; 50 uM): 113.454 and 115.571 and 116.43
Nuclei Intensity wv1 ([1]; 50 uM): 1984.47 and 1672.21 and 2607.1
Nuclei Count wv1 ([1]; 50 uM): 2521 and 2571 and 2418
effect on HepG2 cell death / apoptosis compared with Vorinostat (in words) [1]: activity profile was the closest to Vorinostat; also recorded: active
cytotoxic effects (in words) [1]: did not demonstrate any significant cytotoxic effects
effect on cell proliferation (in words) [1]: did not have any significant effects

SMILES: O=C(CCCCCCC(=O)NC12CCC(CC1)OC2)NO [Compound 88]
Mean nuclei area ([1]; 1 uM): 117.1
Mean nuclei intensity ([1]; 1 uM): 2764.0 RFU
% of early apoptotic cells (PI negative, caspase positive) ([1]; 1 uM): 0.344%
% of necrotic and late apoptotic cells (PI positive) ([1]; 1 uM): 0.9%
All Targets.PI negative.casp positive (%) ([1]; 1 uM): 0.2791% and 0.3975% and 0.3542%
All Targets.PI positive (%) ([1]; 1 uM): 1.031% and 0.9564% and 0.6961%
Nuclei Area wv1 ([1]; 1 uM): 117.054 and 118.289 and 116.039
Nuclei Intensity wv1 ([1]; 1 uM): 2311.93 and 2195.12 and 3784.44
Nuclei Count wv1 ([1]; 1 uM): 8241 and 8051 and 8188
Mean nuclei area ([1]; 5 uM): 118.3
Mean nuclei intensity ([1]; 5 uM): 3381.0 RFU
% of early apoptotic cells (PI negative, caspase positive) ([1]; 5 uM): 0.463%
% of necrotic and late apoptotic cells (PI positive) ([1]; 5 uM): 0.8%
All Targets.PI negative.casp positive (%) ([1]; 5 uM): 0.548% and 0.4031% and 0.4377%
All Targets.PI positive (%) ([1]; 5 uM): 0.8821% and 0.8306% and 0.721%
Nuclei Area wv1 ([1]; 5 uM): 119.866 and 117.043 and 117.864
Nuclei Intensity wv1 ([1]; 5 uM): 3478.61 and 2783.26 and 3882.1
Nuclei Count wv1 ([1]; 5 uM): 7482 and 8187 and 7767
Mean nuclei area ([1]; 50 uM): 129.6
Mean nuclei intensity ([1]; 50 uM): 3968.0 RFU
% of early apoptotic cells (PI negative, caspase positive) ([1]; 50 uM): 12.0%
% of necrotic and late apoptotic cells (PI positive); cell toxicity level ([1]; 50 uM): 18% and 18.5%
inhibition of cell proliferation (in words) [1]: inhibited cell proliferation at 50 μM concentration to the same level as Vorinostat
All Targets.PI negative.casp positive (%) ([1]; 50 uM): 11.5569% and 11.4167% and 12.9144%
All Targets.PI positive (%) ([1]; 50 uM): 19.3713% and 17.5096% and 18.5033%
Nuclei Area wv1 ([1]; 50 uM): 130.383 and 125.337 and 133.198
Nuclei Intensity wv1 ([1]; 50 uM): 4177.18 and 3221.5 and 4506.24
Nuclei Count wv1 ([1]; 50 uM): 3340 and 3381 and 3167
effect on HepG2 cell death / apoptosis compared with Vorinostat (in words) [1]: active
cytotoxic effects (in words) [1]: did not demonstrate any significant cytotoxic effects
effect on cell proliferation (in words) [1]: did not have any significant effects

SMILES: O=C(CCCCCCC(=O)Nc1ccccc1)NO [Vorinostat, reference compound]
Mean nuclei area ([1]; 1 uM): 133.3
Mean nuclei intensity ([1]; 1 uM): 3539.0 RFU
% of early apoptotic cells (PI negative, caspase positive) ([1]; 1 uM): 1.4%
% of necrotic and late apoptotic cells (PI positive) ([1]; 1 uM): 2.0%
All Targets.PI negative.casp positive (%) ([1]; 1 uM): 1.09% and 1.685% and 1.464%
All Targets.PI positive (%) ([1]; 1 uM): 1.46% and 2.372% and 2.236%
Nuclei Area wv1 ([1]; 1 uM): 132.596 and 129.806 and 137.55
Nuclei Intensity wv1 ([1]; 1 uM): 3323.23 and 3018.81 and 4275.36
Nuclei Count wv1 ([1]; 1 uM): 5137 and 4806 and 4919
Mean nuclei area ([1]; 5 uM): 133.4
Mean nuclei intensity ([1]; 5 uM): 4444.0 RFU
% of early apoptotic cells (PI negative, caspase positive) ([1]; 5 uM): 7.2%
% of necrotic and late apoptotic cells (PI positive) ([1]; 5 uM): 10.4%
All Targets.PI negative.casp positive (%) ([1]; 5 uM): 8.109% and 5.087% and 8.342%
All Targets.PI positive (%) ([1]; 5 uM): 11.8095% and 7.619% and 11.7647%
Nuclei Area wv1 ([1]; 5 uM): 135.125 and 131.698 and 133.281
Nuclei Intensity wv1 ([1]; 5 uM): 4725.81 and 3784.72 and 4822.36
Nuclei Count wv1 ([1]; 5 uM): 3675 and 4187 and 3740
Mean nuclei area ([1]; 50 uM): 122.1
Mean nuclei intensity ([1]; 50 uM): 1952.0 RFU
% of early apoptotic cells (PI negative, caspase positive) ([1]; 50 uM): 12.2%
% of necrotic and late apoptotic cells (PI positive); cell toxicity level ([1]; 50 uM): 77% and 77.5%
All Targets.PI negative.casp positive (%) ([1]; 50 uM): 12.2839% and 13.7268% and 10.5715%
All Targets.PI positive (%) ([1]; 50 uM): 77.0504% and 75.6692% and 79.9029%
Nuclei Area wv1 ([1]; 50 uM): 120.16 and 121.222 and 124.941
Nuclei Intensity wv1 ([1]; 50 uM): 1713 and 2196.3 and 1947.17
Nuclei Count wv1 ([1]; 50 uM): 2719 and 2914 and 2677

Next, values leading:

remaining at 40 min, 2 µM (in vitro; microsomes, pH 7.4, % Remaining without cofactor, Mean of 2): 88%
remaining at 7 min, 2 µM (in vitro; [3]): 109%
remaining at 0.25 h, 2 µM (in vitro; [3]): 93%
remaining at 25 min, 2 µM (in vitro; [3]): 82%
remaining at 40 min, 2 µM (in vitro; [3]): 66%
SMILES: Cc1ccc(NC(=O)c2ccc(CN3CCN(C)CC3)cc2)cc1Nc1nccc(-c2cccnc2)n1 [Imatinib]

chemical stability in acid ([2]; aq. 1 M HCl, room temperature, 1 h): no decomposition
chemical stability in base ([2]; aq. 1 M NaOH, room temperature, 1 h): no decomposition
thermal stability ([2]; heating at 100 °C for five minutes): remained stable
stability on storage ([2]; in air, room temperature, closed vials, one year, 1H NMR): no changes
SMILES: CC12CCC(CN)(CC1)OC2 [Compound 52]

remaining at 40 min, 2 µM (in vitro; [3]): 66%
half-life at 2 µM (in vitro; microsomes, pH 7.4, t1/2: half-time of a metabolic decomposition): 1.02 h
k el at 2 µM (in vitro; pH 7.4, kel (elimination constant)): 0.000183 s⁻¹
SMILES: CC(C)NCC(O)COc1cccc2ccccc12 (racemic) [Propranolol, (+,-) Propranolol hydrochloride]
